Data on 22 compounds can be found in US20130252930A1 (BIOMARIN PHARMACEUTICAL INC., priority 2010, published 2013).

Read-outs that look alike come from different tables or passages of the source.

Test [1] deals with T1, CYP17 (human testicular microsome) (Homo sapiens, UniProt P05093).
T1 construct: using microsomal fraction from human testis (Celsis Cat #S00110) as the enzyme source; tissue Celsis S00110; host or cells: human testis microsomal fraction
T1 sequence (P05093 1-508): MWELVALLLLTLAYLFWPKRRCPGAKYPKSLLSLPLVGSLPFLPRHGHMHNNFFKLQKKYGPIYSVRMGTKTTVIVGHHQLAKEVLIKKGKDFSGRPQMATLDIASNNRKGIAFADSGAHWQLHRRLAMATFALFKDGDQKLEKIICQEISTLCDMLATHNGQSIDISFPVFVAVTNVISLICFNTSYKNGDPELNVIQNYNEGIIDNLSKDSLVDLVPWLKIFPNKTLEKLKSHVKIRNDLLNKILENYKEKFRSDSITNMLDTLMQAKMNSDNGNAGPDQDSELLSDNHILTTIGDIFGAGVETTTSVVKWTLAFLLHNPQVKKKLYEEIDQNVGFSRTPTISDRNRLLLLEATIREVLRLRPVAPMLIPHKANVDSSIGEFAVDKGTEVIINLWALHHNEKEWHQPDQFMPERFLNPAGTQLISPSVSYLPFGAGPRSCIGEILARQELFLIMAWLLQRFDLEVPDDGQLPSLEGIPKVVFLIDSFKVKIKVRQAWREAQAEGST
The experiment in a line: CYP17 enzymatic assay (% inhibition at 10 nM), version 1 (Biological Example 5). In kind it is biochemical.

For test [2], the target named is T1, CYP17 (human testicular microsome). The experiment in a line: CYP17 enzymatic assay (IC50) (Biological Example 4). Particulars: human testicular microsome, DHEA by ELISA; read-out: Biological Example No. 4: CYP17 enzymatic assay IC50. Type of test: biochemical. (In an ELISA, binding on a coated surface is turned into a signal by an enzyme label.)
Where [3] appears, read: 10 nM compound, DHEA by ELISA, read-out: Biological Example No. 5: CYP17 percent inhibition at 10 nM (version 1).
Where [4] appears, read: compound at 10 nM, read-out: CYP17 enzymatic assay % inhibition at 10 nM (Biological Example No. 5).

`CC(=O)O[C@H]1CC[C@@]2(C)[C@@H](CC[C@H]3C4=CC=C(n5ccnc5)[C@@]4(C)CC[C@@H]32)C1` [Compound 169, (5S,8R,9S,10S,13S)-17-(1H-imidazol-1-yl)-10,13-dimethyl-2,3,4,5,6,7,8,9,10,11,12,13-dodecahydro-1H-cyclopenta[a]phenanthren-3-yl acetate]: the inhibition (commonly the drop in the measured response relative to a control, in per cent) at 0.01 µM in test [1] (setting [3]) was > 80%. Moreover, the IC50 – broadly, the concentration at which inhibition is half-maximal – in test [2] was < 11 nM.

As to `COc1cncc(C2=CC[C@H]3[C@@H]4CCC5=CC(=O)NCC[C@]5(C)[C@H]4CC[C@]23C)c1` [Compound 53, (5aR,7aS)-8-(5-methoxypyridin-3-yl)-5a,7a-dimethyl-4,5,5a,5b,6,7,7a,8,9,10,10a,10b,11,12-tetradecahydrocyclopenta[5,6]naphtho[2,1-c]azepin-3(2H)-one], the inhibition at 0.01 µM in test [1] (setting [3]) fell in the range of 50 to 80%. For the same compound, in test [2], the IC50 was < 11 nM.

`C[C@]12CCNC(=O)CC[C@@H]1CC[C@@H]1[C@@H]2CC[C@]2(C)C(c3cccnc3)=CC[C@@H]12` [Compound 101, (6aS,6bS,8aS,11aS,11bR,13a5)-6a,8a-dimethyl-9-(pyridin-3-yl)-4,5,6,6a,6b,7,8,8a,11,11a,11b,12,13,13a-tetradecahydro-1H-cyclopenta[5,6]naphtho[1,2-d]azocin-3(2H)-one]: the inhibition at 0.01 µM in test [1] (setting [3]) lay within 50 to 80%.

On to `COc1cncc(C2=CC=C3[C@@H]4CC=C5C[C@@H](OC(C)=O)CC[C@]5(C)[C@H]4CC[C@]23C)c1` [Compound 80, (3S,10R,13S)-17-(5-methoxypyridin-3-yl)-10,13-dimethyl-2,3,4,7,8,9,10,11,12,13-decahydro-1H-cyclopenta[a]phenanthren-3-yl acetate], for which the inhibition at 0.01 µM in test [1] (setting [3]) is > 80%. Further, the half-inhibitory concentration (IC50) in test [2] was < 11 nM.

Take `COc1cncc(C2=CC[C@H]3[C@@H]4CC[C@H]5CCCCC[C@]5(C)[C@H]4CC[C@]23C)c1` [Compound 92, 3-((3aS,3bR,5aR,10aS,10bS,12aS)-10a,12a-dimethyl-3,3a,3b,4,5,5a,6,7,8,9,10,10a,10b,11,12,12a-hexadecahydrocyclohepta[a]cyclopenta[f]naphthalen-1-yl)-5-methoxypyridine]: the inhibition at 0.01 µM in test [1] (setting [3]) was 50 to 80%.

Take `CCOc1cncc(C2=CC[C@H]3[C@@H]4CCC5N(C)C(=O)COC[C@]5(C)[C@H]4CC[C@]23C)c1` (stereo partly drawn) [Compound 99, (5aR,5bS,7aS,10aS,10bS)-8-(5-ethoxypyridin-3-yl)-1,5a,7a-trimethyl-5,5a,5b,6,7,7a,10,10a,10b,11,12,12a-dodecahydro-1H-cyclopenta[5,6]naphtho[2,1-e][1,4]oxazepin-2(3H)-one]: the inhibition at 0.01 µM in test [1] (setting [3]) lay in the range of 1 to 50%.

`COC1CC[C@@]2(C)[C@@H](CC[C@@H]3[C@@H]2CC[C@]2(C)C(n4ccnn4)=CC[C@@H]32)C1` (stereo partly drawn) [Compound 452, 1-((5S,8R,9S,10S,13S,14S)-3-methoxy-10,13-dimethyl-2,3,4,5,6,7,8,9,10,11,12,13,14,15-tetradecahydro-1H-cyclopenta[a]phenanthren-17-yl)-1H-1,2,3-triazole]: the inhibition at 0.01 µM in test [1] (setting [4]) was 1 to 50%.

As for `Cc1cncc(C2=CC[C@H]3[C@@H]4CC[C@H]5CCOCC[C@]5(C)[C@H]4CC[C@]23C)c1` [Compound 126, 3-((5aS,5bS,7aS,10aS,10bR,12aS)-5a,7a-dimethyl-2,4,5,5a,5b,6,7,7a,10,10a,10b,11,12,12a-tetradecahydro-1H-cyclopenta[5,6]naphtho[1,2-d]oxepin-8-yl)-5-methylpyridine], the inhibition at 0.01 µM in test [1] (setting [3]) was in the range of 50 to 80%. Also, in test [2], the IC50 is < 11 nM.

Consider `C[C@]12CC[C@H]3[C@@H](CC[C@H]4CNC(=O)CC[C@@]43C)C1=CC=C2n1ccnc1` [Compound 448, (5aR,5bS,7aS,10bR,12aR)-8-(1H-imidazol-1-yl)-5a,7a-dimethyl-1,2,5,5a,5b,6,7,7a,10b,11,12,12a-dodecahydrocyclopenta[5,6]naphtho[2,1-c]azepin-3(4H)-one], for which, in test [1] (setting [4]), the inhibition at 0.01 µM lay within 50 to 80%.

For `CCCOc1cncc(C2=CC[C@H]3[C@@H]4CCC5=CCN(C)CC[C@]5(C)[C@H]4CC[C@]23C)c1` [Compound 149], the inhibition at 0.01 µM in test [1] (setting [3]) lay within 1 to 50%.

On to `C[C@]12CC[C@H]3[C@@H](CCC4CNC(=O)CC[C@@]43C)C1=CC=C2n1ccnn1` (stereo partly drawn) [Compound 179, (5aR,5bS,7aS,10bR)-5a,7a-dimethyl-8-(1H-1,2,3-triazol-1-yl)-1,2,5,5a,5b,6,7,7a,10b,11,12,12a-dodecahydrocyclopenta[5,6]naphtho[2,1-c]azepin-3(4H)-one], for which the inhibition at 0.01 µM in test [1] (setting [3]) is 1 to 50%.

For the compound `Cc1ccncc1C1=CC[C@H]2[C@@H]3CC[C@H]4CCCCC[C@]4(C)[C@H]3CC[C@]12C` [Compound 95, 3-((3aS,3bR,5aR,10aS,10bS,12aS)-10a,12a-dimethyl-3,3a,3b,4,5,5a,6,7,8,9,10,10a,10b,11,12,12a-hexadecahydrocyclohepta[a]cyclopenta[f]naphthalen-1-yl)-4-methylpyridine], the inhibition at 0.01 µM in test [1] (setting [3]) lay in the range of 1 to 50%.

As for `CCOc1cncc(C2=CC[C@H]3[C@@H]4CC[C@H]5CCCCC[C@]5(C)[C@H]4CC[C@]23C)c1` [Compound 94, 3-((3aS,3bR,5aR,10aS,10bS,12aS)-10a,12a-dimethyl-3,3a,3b,4,5,5a,6,7,8,9,10,10a,10b,11,12,12a-hexadecahydrocyclohepta[a]cyclopenta[f]naphthalen-1-yl)-5-ethoxypyridine], the inhibition at 0.01 µM in test [1] (setting [3]) was in the range of 1 to 50%.

As to `C[C@]12CC(=O)C[C@@H]1CC[C@@H]1[C@@H]2CC[C@]2(C)C(n3ccnn3)=CC[C@@H]12` [Compound 110, (3aS,5aS)-3a,5a-dimethyl-6-(1H-1,2,3-triazol-1-yl)-3,3a,3b,4,5,5a,8,8a,8b,9,10,10a-dodecahydrodicyclopenta[a,f]naphthalen-2(1H)-one], the inhibition at 0.01 µM in test [1] (setting [3]) fell in the range of 1 to 50%.

On to `C[C@]12CCCCC[C@@H]1CC[C@@H]1[C@@H]2CC[C@]2(C)C(c3cccnc3)=CC[C@@H]12` [Compound 90, 3-((3aS,3bR,5aR,10aS,10bS,12aS)-10a,12a-dimethyl-3,3a,3b,4,5,5a,6,7,8,9,10,10a,10b,11,12,12a-hexadecahydrocyclohepta[a]cyclopenta[f]naphthalen-1-yl)pyridine], for which the inhibition at 0.01 µM in test [1] (setting [3]) lay in the range of 1 to 50%.

As to `COC1CC[C@@]2(C)[C@@H](CC[C@@H]3[C@@H]2CC[C@]2(C)C(c4cccnc4)=CC[C@@H]32)C1` (stereo partly drawn) [Compound 449, 3-((5S,8R,9S,10S,13S,14S)-3-methoxy-10,13-dimethyl-2,3,4,5,6,7,8,9,10,11,12,13,14,15-tetradecahydro-1H-cyclopenta[a]phenanthren-17-yl)pyridine], in test [1] (setting [4]), the inhibition at 0.01 µM fell in the range of 1 to 50%.

Turning to `C[C@]12CC[C@H]3[C@@H](CCC4CC(=O)NCC[C@@]43C)C1=CC=C2n1ccnn1` (stereo partly drawn) [Compound 178, (5aS,5bS,7aS,10bR)-5a,7a-dimethyl-8-(1H-1,2,3-triazol-1-yl)-3,4,5,5a,5b,6,7,7a,10b,11,12,12a-dodecahydrocyclopenta[5,6]naphtho[1,2-d]azepin-2(1H)-one], in test [1] (setting [3]), the inhibition at 0.01 µM lay in the range of 1 to 50%.

`CCc1cncc(C2=CC[C@H]3[C@@H]4CCC5=CCN(C)CC[C@]5(C)[C@H]4CC[C@]23C)c1` [Compound 150]: the inhibition at 0.01 µM in test [1] (setting [3]) is 1 to 50%.

Take `CCCOc1cncc(C2=CC[C@H]3[C@@H]4CCN5C(=O)CCCC[C@]5(C)[C@H]4CC[C@]23C)c1` [Compound 42, (11aR,13aS)-11a,13a-dimethyl-1-(5-propoxypyridin-3-yl)-3b,4,5,8,9,10,11,11a,11b,12,13,13a-dodecahydro-3H-azepino[2,1-a]cyclopenta[f]isoquinolin-7(3aH)-one]: the inhibition at 0.01 µM in test [1] (setting [3]) lay in the range of 50 to 80%. The IC50 in test [2] was < 11 nM.

`CCc1cncc(C2=CC[C@H]3[C@@H]4CC=C5CCCC[C@]5(C)[C@H]4CC[C@]23C)c1` [Compound 64, 3-((10R,13S)-10,13-dimethyl-2,3,4,7,8,9,10,11,12,13,14,15-dodecahydro-1H-cyclopenta[a]phenanthren-17-yl)-5-ethylpyridine]: the inhibition at 0.01 µM in test [1] (setting [3]) lay in the range of 1 to 50%.

For the compound `C=Cc1cncc(C2=CC[C@H]3[C@@H]4CCN5C(=O)CCCC[C@]5(C)[C@H]4CC[C@]23C)c1` [Compound 43, (11aR,13aS)-11a,13a-dimethyl-1-(5-vinylpyridin-3-yl)-3b,4,5,8,9,10,11,11a,11b,12,13,13a-dodecahydro-3H-azepino[2,1-a]cyclopenta[f]isoquinolin-7(3aH)-one], the inhibition at 0.01 µM in test [1] (setting [3]) lay within 50 to 80%. Further, in test [2], the IC50 is < 11 nM.

As to `CC(=O)N1CCC[C@@]2(C)[C@@H](CC[C@@H]3[C@@H]2CC[C@]2(C)C(n4ccnn4)=CC[C@@H]32)C1` [Compound 141, 1-((5aR,5bS,7aS,10aS,10bR,12aR)-5a,7a-dimethyl-8-(1H-1,2,3-triazol-1-yl)-3,4,5,5a,5b,6,7,7a,10,10a,10b,11,12,12a-tetradecahydrocyclopenta[5,6]naphtho[2,1-c]azepin-2(1H)-yl)ethanone], in test [1] (setting [3]), the inhibition at 0.01 µM is < 1%.
